Data published in patent publication US7803821B2, “Fungicide N-cycloalkyl-carboxamide, thiocarboxamide and N-substituted-carboximidamide derivatives” (Bayer Cropscience SA, priority 2006, dated 2010).

Assay: log P by HPLC on reversed-phase column (C18), EEC Directive 79/831 Annex V.A8
Type: physicochemical
Settings: C18, 40° C., 0.1% aqueous formic acid and acetonitrile, gradient 10% to 90% acetonitrile
Description: Temperature: 40° C.; Mobile phases: 0.1% aqueous formic acid and acetonitrile; linear gradient from 10% acetonitrile to 90% acetonitrile.

Row | SMILES | logP
1 | CC(c1cccnc1Cl)N(C(=O)c1cn(C)nc1C(F)F)C1CC1 (racemic) [Example 81] | 1.88
2 | Cc1cc(C(=O)N(C2CC2)C(C)c2cnccn2)no1 (stereo not shown) [Example 45] | 1.65
3 | Cc1nc(C(F)(F)F)ccc1CN(C(=O)c1cn(C)nc1C(F)(F)F)C1CC1 [Example 85] | 2.82
4 | COc1nn(C)cc1C(=O)N(Cc1ccc(C(F)(F)F)nc1C)C1CC1 [Example 88] | 2.02
5 | CC(c1cnc(Cl)c(Cl)c1)N(C(=O)c1cn(C)nc1C(F)F)C1CC1 (stereo not shown) [Example 5] | 2.67
6 | CCOc1nn(C)cc1C(=O)N(Cc1ncc(Cl)cc1Cl)C1CC1 [Example 22] | 2.54
7 | Cc1nn(C)cc1C(=O)N(C1CC1)C(C)c1cccnc1Cl (racemic) [Example 78] | 1.58
8 | Cc1cc(C(=O)N(Cc2ccc(Cl)cn2)C2CC2)c(C(F)(F)F)o1 [Example 50] | 3.36
9 | Cn1cc(C(=O)N(Cc2ccncc2)C2CC2)c(C(F)(F)F)n1 [Example 11] | 0.59
10 | Cc1cc(C(=O)N(Cc2c(Cl)cncc2Cl)C2CC2)no1 [Example 106] | 2.4
11 | Cc1ccoc1C(=O)N(C1CC1)C(C)c1cnccn1 (stereo not shown) [Example 41] | 2.04
12 | Cc1nn(C)c(F)c1C(=O)N(C1CC1)C(C)c1cnc(Cl)c(Cl)c1 (stereo not shown) [Example 4] | 2.56
13 | Cn1cc(C(=O)N(Cc2c(Cl)cncc2Cl)C2CC2)c(C(F)F)n1 [Example 103] | 1.88
14 | CC(c1cnccn1)N(C(=O)c1cn(C)nc1C(F)F)C1CC1 (stereo not shown) [Example 42] | 1.47
15 | Cc1ccc(CN(C(=O)c2cn(C)nc2C(F)F)C2CC2)cn1 [Example 8] | 0.52
16 | COc1ccnc(CN(C(=O)c2cn(C)cc2C(F)(F)F)C2CC2)c1OC [Example 112] | 1.32
17 | Cc1cc(C(=O)N(C2CC2)C(C)c2cccnc2Cl)no1 (racemic) [Example 83] | 2.07
18 | COc1ccnc(CN(C(=O)c2nn(C)nc2C(F)(F)F)C2CC2)c1OC [Example 111] | 1.44
19 | CC(c1cnccn1)N(C(=O)c1ccsc1I)C1CC1 (stereo not shown) [Example 37] | 2.38
20 | O=C(c1ccsc1I)N(Cc1c(Cl)cncc1Cl)C1CC1 [Example 97] | 3.21
21 | Cc1cc(C(=O)N(C2CC2)C(C)c2cccnc2Cl)nn1C (racemic) [Example 84] | 1.78
22 | Cc1nn(C)cc1C(=O)N(C1CC1)C(C)c1cnccn1 (stereo not shown) [Example 40] | 1.25

Row | SMILES | logP
23 | COc1ccnc(CN(C(=O)c2cn(C)nc2C(F)(F)F)C2CC2)c1OC [Example 108] | 1.18
24 | COc1ccnc(CN(C(=O)c2sc(C)nc2C(F)F)C2CC2)c1OC [Example 110] | 1.2
25 | Cc1ccc(CN(C(=O)c2c(C)nn(C)c2F)C2CC2)cn1 [Example 7] | 0.43
26 | Cc1nc(C(F)(F)F)c(C(=O)N(Cc2ccc(Cl)cn2)C2CC2)s1 [Example 51] | 2.93
27 | COc1ccc(CN(C(=O)c2cc(C)on2)C2CC2)cn1 [Example 63] | 2.08
28 | Cc1nc(C(F)(F)F)c(C(=O)N(Cc2ncc(Cl)cc2Cl)C2CC2)s1 [Example 23] | 3.76
29 | Cc1nc(C(F)F)c(C(=O)N(Cc2ccc(Cl)cn2)C2CC2)s1 [Example 52] | 2.54
30 | Cn1cc(C(=O)N(Cc2cnc(Cl)cc2Cl)C2CC2)c(C(F)F)n1 [Example 10] | 2.46
31 | CC(c1cnc(Cl)c(Cl)c1)N(C(=O)c1cn(C)cc1C(F)(F)F)C1CC1 (stereo not shown) [Example 2] | 3.34
32 | Cn1cc(C(=O)N(Cc2ccc(Cl)cn2)C2CC2)c(C(F)(F)F)n1 [Example 48] | 2.39
33 | Cc1cc(C(=O)N(C2CC2)C(C)c2cnccn2)nn1C (stereo not shown) [Example 46] | 1.45
34 | Cc1nc(C(F)F)c(C(=O)N(Cc2ccncc2)C2CC2)s1 [Example 14] | 0.58
35 | CCC(c1ccncc1)N(C(=O)c1cn(C)nc1C(F)F)C1CC1 (stereo not shown) [Example 18] | 1.79
36 | Cc1nn(C)c(F)c1C(=O)N(Cc1ccc(Oc2ccccc2)nc1)C1CC1 [Example 35] | 2.39
37 | O=C(c1sccc1I)N(Cc1ccc(Cl)cn1)C1CC1 [Example 53] | 3.17
38 | Cc1nc(C(=O)N(Cc2c(Cl)cncc2Cl)C2CC2)c(C)o1 [Example 99] | 2.18
39 | Cc1nc(C(F)F)c(C(=O)N(C2CC2)C(C)c2ncc(Cl)cc2Cl)s1 (stereo not shown) [Example 20] | 3.64
40 | Cc1cc(C(=O)N(C2CC2)C(C)c2cnc(Cl)c(Cl)c2)c(C)o1 (stereo not shown) [Example 3] | 3.7
41 | Cc1nn(C)cc1C(=O)N(Cc1c(Cl)cncc1Cl)C1CC1 [Example 100] | 1.8
42 | CCc1nn(C)c(F)c1C(=O)N(C1CC1)C(C)c1ncc(Cl)cc1Cl (stereo not shown) [Example 33] | 3.23
43 | CC(c1ncc(Cl)cc1Cl)N(C(=S)c1cn(C)nc1C(F)F)C1CC1 (stereo not shown) [Example 32] | 4.01
44 | Cc1nn(C)c(F)c1C(=O)N(Cc1ncc(Cl)cc1Cl)C1CC1 [Example 29] | 2.56

Row | SMILES | logP
45 | Cc1nn(C)c(F)c1C(=O)N(C1CC1)C(C)c1ncc(Cl)cc1Cl (stereo not shown) [Example 28] | 2.77
46 | CC(c1cnccn1)N(C(=S)c1cn(C)nc1C(F)F)C1CC1 (stereo not shown) [Example 43] | 2.05
47 | Cn1cc(C(=O)N(Cc2ccc(Cl)nc2)C2CC2)c(C(F)(F)F)n1 [Example 65] | 2.02
48 | CC(c1ncc(Cl)cc1Cl)N(C(=O)c1cn(C)nc1C(F)F)C1CC1 (stereo not shown) [Example 31] | 3.01
49 | Cc1ncoc1C(=O)N(C1CC1)C(C)c1cnccn1 (stereo not shown) [Example 44] | 1.37
50 | COc1ccc(CN(C(=O)c2cc(C)n(C)n2)C2CC2)cn1 [Example 64] | 1.74
51 | COc1ccnc(CN(C(=O)c2ccsc2I)C2CC2)c1OC [Example 109] | 1.47
52 | COc1ccnc(CN(C(=O)c2cn(C)nc2OC)C2CC2)c1OC [Example 115] | 0.56
53 | O=C(c1ccsc1I)N(Cc1ccc(Cl)nc1)C1CC1 [Example 66] | 2.67
54 | Cc1ccoc1C(=O)N(Cc1c(Cl)cncc1Cl)C1CC1 [Example 101] | 2.87
55 | Cn1nc(C(=O)N(Cc2ccncc2)C2CC2)c(C(F)(F)F)n1 [Example 15] | 1.03
56 | COc1ccc(CN(C(=O)c2cn(C)nc2C)C2CC2)cn1 [Example 58] | 1.53
57 | Cc1nn(C)c(F)c1C(=O)N(Cc1cnc(Cl)cc1Cl)C1CC1 [Example 9] | 2.28
58 | COc1ccnc(CN(C(=O)c2cn(C)nc2C(F)F)C2CC2)c1OC [Example 114] | 1.05
59 | CC(c1cnc(Cl)c(Cl)c1)N(C(=O)c1cn(C)nc1C(F)(F)F)C1CC1 (stereo not shown) [Example 1] | 3.14
60 | Cn1cc(C(=O)N(Cc2ccc(Oc3ccccc3)nc2)C2CC2)c(C(F)F)n1 [Example 36] | 2.61
61 | Cc1nn(C)cc1C(=O)N(C1CC1)C(C)c1ncc(Cl)cc1Cl (stereo not shown) [Example 27] | 2.4
62 | Cc1cc(C(=O)N(Cc2c(Cl)cncc2Cl)C2CC2)nn1C [Example 107] | 2
63 | Cc1nc(C(F)(F)F)ccc1CN(C(=O)c1cn(C)nc1C(F)F)C1CC1 [Example 87] | 2.51
64 | Cc1nc(C(=O)N(C2CC2)C(C)c2cnccn2)c(C)o1 (stereo not shown) [Example 39] | 1.55
65 | COc1ccc(CN(C(=O)c2ccco2)C2CC2)cn1 [Example 56] | 1.97
66 | Cn1cc(C(=O)N(Cc2ccncc2)C2CC2)c(C(F)(F)F)c1 [Example 16] | 0.99

Row | SMILES | logP
67 | Cc1nn(C)c(F)c1C(=S)N(C1CC1)C(C)c1ncc(Cl)cc1Cl (stereo not shown) [Example 30] | 3.9
68 | Cn1cc(C(=S)N(Cc2ccc(Cl)nc2)C2CC2)c(C(F)F)n1 [Example 73] | 2.58
69 | COc1nn(C)cc1C(=O)N(C1CC1)C(C)c1cnc(Cl)c(Cl)c1 (stereo not shown) [Example 6] | 2.29
70 | Cc1nn(C)c(F)c1C(=O)N(Cc1c(Cl)cncc1Cl)C1CC1 [Example 102] | 2.01
71 | Cn1cc(C(=S)N(Cc2c(Cl)cncc2Cl)C2CC2)c(C(F)F)n1 [Example 104] | 2.93
72 | O=C(c1sccc1I)N(Cc1ncc(Cl)cc1Cl)C1CC1 [Example 26] | 4.16
73 | CC(c1cnccn1)N(C(=O)c1ccco1)C1CC1 (stereo not shown) [Example 38] | 1.62
74 | Cc1nc(C(F)F)c(C(=O)N(Cc2ncc(Cl)cc2Cl)C2CC2)s1 [Example 24] | 3.42
75 | COc1ccc(CN(C(=O)c2nc(C)oc2C)C2CC2)cn1 [Example 57] | 1.89
76 | COc1nn(C)cc1C(=O)N(Cc1ncc(Cl)cc1Cl)C1CC1 [Example 34] | 2.21
77 | COc1ccc(CN(C(=O)c2occc2C)C2CC2)cn1 [Example 59] | 2.46
78 | Cc1ncoc1C(=O)N(Cc1c(Cl)cncc1Cl)C1CC1 [Example 105] | 2.04
79 | COc1ccc(CN(C(=O)c2ocnc2C)C2CC2)cn1 [Example 62] | 1.72
80 | Cn1cc(C(=O)N(Cc2ncc(Cl)cc2Cl)C2CC2)c(C(F)(F)F)n1 [Example 21] | 3.21
81 | Cn1cc(C(=O)N(Cc2ccc(Cl)cn2)C2CC2)c(C(F)F)n1 [Example 54] | 2.08
82 | COc1nn(C)cc1C(=O)N(Cc1ccc(Cl)nc1)C1CC1 [Example 74] | 1.56
83 | Cc1nc(C(F)(F)F)c(C(=O)N(Cc2ccncc2)C2CC2)s1 [Example 13] | 0.93
84 | COc1ccc(CN(C(=O)c2cn(C)nc2C(F)F)C2CC2)cn1 [Example 61] | 1.8
85 | CCOc1nn(C)cc1C(=O)N(Cc1ccc(Cl)cn1)C1CC1 [Example 49] | 1.98
86 | COc1ccc(CN(C(=O)c2c(C)nn(C)c2F)C2CC2)cn1 [Example 60] | 1.64

Same assay, conditions: reversed-phase HPLC column (C18), C18, 40° C., 0.1% aqueous formic acid and acetonitrile, gradient 10% to 90% acetonitrile

Row | SMILES | chromatographic logP
87 | COc1ccnc(CN(C(=O)c2c(C)nn(C)c2F)C2CC2)c1OC [Example 113, N-cyclopropyl-N-[(3,4-dimethoxypyridin-2-yl)methyl]-5-fluoro-1,3-dimethyl-1H-pyrazole-4-carboxamide] | 1.65
88 | CCC(c1ccncc1)N(C(=O)c1c(C)nn(C)c1F)C1CC1 (stereo not shown) [Example 17, N-cyclopropyl-N-[1-pyridin-4-yl-propyl]-5-fluoro-1,3-dimethyl-1H-pyrazole-4-carboxamide] | 0.92
